From paper PMC9282638, “A Suite of Activity-Based Probes To Dissect the KLK Activome in Drug-Resistant Prostate Cancer” (Journal of the American Chemical Society, 2021)
Square brackets hold non-standard residues; d marks the D form. Ends that are not written are not given here. Peptide text beside a SMILES is read from it. * marks the point of attachment. Phe(3,4-F2) = N[C@@H](Cc1ccc(F)c(F)c1)C(=O)O; Phe(4-Br) = N[C@@H](Cc1ccc(Br)cc1)C(=O)O; Phe(4-NH2) = Nc1ccc(C[C@H](N)C(=O)O)cc1; Dab = NCC[C@H](N)C(=O)O; Nle = CCCC[CH](N)C(=O)O; Abu = CC[C@H](N)C(=O)O; Dap = NC[C@H](N)C(=O)O; X1 = OB(O)C(CCCBr)N*; Ahx = NCCCCCC(=O)O

Legend:
KLK2 = molecular target: T1, KLK2 (Homo sapiens, UniProt P20151); assay: Determination of kinact/KI, fluorogenic substrate kinetic assay; format: biochemical; conditions: for selectivity (fold-change): KLK2 over KLK14
T1 construct: purchased R&D Systems
T1 sequence (P20151 25-261): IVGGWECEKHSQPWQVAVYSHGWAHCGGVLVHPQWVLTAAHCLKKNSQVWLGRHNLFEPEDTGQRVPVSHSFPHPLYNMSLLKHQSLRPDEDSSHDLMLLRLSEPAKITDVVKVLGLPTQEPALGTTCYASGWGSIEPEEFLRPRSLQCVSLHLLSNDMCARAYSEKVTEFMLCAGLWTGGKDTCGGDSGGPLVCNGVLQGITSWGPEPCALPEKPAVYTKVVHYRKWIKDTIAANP
Description: 1.1 Chemicals and Reagents
All chemicals and reagents were purchased from commercial suppliers and used without further purification. Rink Amide resin (100-200 mesh) and 2-Chlorotrityl chloride resin (100-200 mesh, 1% DVB) were obtained from Merck. Natural Fmoc-amino acids were obtained from AGTC Bioproducts Ltd. Unnatural Fmoc-amino acids were obtained from Fluorochem, Alfa Aesar, VWR, Merck, Iris Biotech, Bachem or Sigma Aldrich. Culture media, fetal bovine serum, trypsin, antibiotics and chemicals required for differentiation of osteoprogenitor cells were obtained from Sigma Aldrich, Gibco or Invitrogen. Amicon 3 KDa Centrifugal filter units were obtained from Merck. Recombinant human KLK2 and KLK14 were obtained from R&D Systems and activated using the supplier’s protocol. All remaining chemical reagents were obtained from VWR, Sigma Aldrich or Merck. […]
Fluorescent plate-based enzymatic assays were carried out using an Envision 2104 Multilabel Plate Reader (PerkinElmer) operating in kinetic mode for a minimum of 20 min with excitation/emission […]
Specificity […]
was calculated by normalizing RFUs-1 to the highest value, which was set at 100 %.
Calculations were made in GraphPad Prism 5.
Determination of kcat/KM: The KLK2 substrate and KLK14 substrate were serially diluted in the appropriate KLK assay buffer and 25 μL was added to the wells of a 96-well plate. Next, 25 μL of KLK2 (1.5 nM) or KLK14 (75 pM) was added to each well containing the substrate and the enzyme-substrate reaction was monitored for at least 10 min. The linear portion of each progress curve was used to calculate relative fluorescence units per second (RFUs-1).
KM, kcat, and kcat/KM parameters were determined by nonlinear regression in GraphPad Prism 5 (GraphPad Software). Each experiment was repeated three times and the results are presented as an average ± SEM.
Determination of kinact/KI: Under pseudo-first order conditions, a fixed amount of KLK2 (1.5 nM) or KLK14 (37 pM) was incubated with peptidyl-DPP analogue at different concentrations in the presence of 5 µM of substrate. The pseudo first-order rate constant, kobs, was calculated for each probe concentration using non-linear regression analysis in GraphPad Prism 5. The obtained values were plotted against probe concentration to afford the apparent second order rate constant kinact(app)/KI. The absolute value of the second order rate constant was then obtained by adjusting for the substrate competition factor (1 + [S]/Km), where S is the concentration of substrate in the assay and KM is the Michaelis Menten constant for that substrate/enzyme reaction.
2.5 Cell Migration Assays
Cell migration: The assay was performed as per the manufacturer’s protocol (https://www.corning.com/catalog/cls/documents/protocols/an_Chemotaxis_protocol.pdf).
Briefly, LNCaP-WT, LNCaP-mK14 and LNCaP-K14 cells were grown to 80% confluency in RPMI media supplemented with 5 % FBS. The media was then aspirated, the cells were washed with 2 mL PBS (3*) and incubated with serum-free RPMI (without phenol red) supplemented with 10 nM DHT ± 100 ng/mL Dox for 24 h. Cells were trypsinized, washed twice with serum-free RPMI and resuspended in serum-free RPMI. 100,000 cells in 100 µL of serum-free RPMI was then added to the transwell inserts placed in a 24-well plate (Corning […]
Figure S15: KLK2 and KLK14 substrates. (A) Structures (B) Optimal assay conditions for […]
S19) inhibitors (C) Michaelis-Menten (K M) and rate (kcat) constants for KLK substrates

KLK14 = molecular target: T2, KLK14 (Homo sapiens, UniProt Q9P0G3); assay: as above; format: biochemical; conditions: for Kinact/KI KLK14 / kinact/KI: mean ± SEM (N = 3); for selectivity (fold-change): KLK14 over KLK2
T2 construct: purchased R&D Systems
T2 sequence (Q9P0G3 25-251): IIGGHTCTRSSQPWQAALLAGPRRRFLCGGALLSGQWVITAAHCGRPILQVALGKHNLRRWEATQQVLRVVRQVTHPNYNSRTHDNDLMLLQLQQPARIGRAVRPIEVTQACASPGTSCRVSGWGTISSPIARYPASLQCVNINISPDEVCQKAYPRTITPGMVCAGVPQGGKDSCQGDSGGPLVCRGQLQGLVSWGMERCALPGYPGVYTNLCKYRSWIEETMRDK

LNCaP cells = assay: KLK activity and expression in LNCaP cells after AR signaling perturbation (streptavidin enrichment and immunoblotting); format: cell-based, human; conditions: 10 nM DHT ± 10 μM Enz, 48 h
Procedure: (B) KLK activity and expression in the LNCaP cell line after treatment with 10 nM DHT ± 10 μM Enz. KLK activity was assessed by streptavidin enrichment of probe-labeled KLK molecules following treatment of conditioned media with 1 μM of either 31, 20, or 39 for 1 h.
To enable detection of each KLK in WT LNCaP cells, we incubated LNCaP conditioned media with 1 μM of each KLK ABP, enriched labeled proteins on streptavidin beads, and visualized activity levels by immunoblotting with the appropriate KLK antibody (see Figure S19 for workflow).
Routine cell culture conditions: Wild-type LNCaP cells (passage <15) were grown in RPMI
Androgen-signaling Experiments: LNCaP cells grown to 80 % confluency in a T175 plate
were incubated with phenol red-free RPMI media supplemented with 5 % charcoal-stripped
FBS for 24 h. After 24 h, the media was aspirated, and the cells were incubated with serum-
free RPMI media (0 % FBS and phenol red-free) supplemented with the appropriate treatment
condition (10 nM DHT or 10 nM DHT + 10 μM Enzalutamide) for a further 48 h. After 48 h the
media was collected, passed through a 0.2 μm syringe filter and stored at – 80 °C until needed.

KLK3 [1] = conditions: cited from earlier work
KLK3 [2] = molecular target: T3, KLK3 (Homo sapiens, UniProt P07288); assay: Competitive ABPP against 3 in LNCaP conditioned media, densitometry; format: biochemical; conditions: LNCaP CM, analogue 1 h then 20 μM 3 for 1 h; 16 analogues tested
T3 construct: endogenous in cells; host or cells: LNCaP cells treated with 10 nM DHT; conditioned medium
T3 sequence (P07288 25-261): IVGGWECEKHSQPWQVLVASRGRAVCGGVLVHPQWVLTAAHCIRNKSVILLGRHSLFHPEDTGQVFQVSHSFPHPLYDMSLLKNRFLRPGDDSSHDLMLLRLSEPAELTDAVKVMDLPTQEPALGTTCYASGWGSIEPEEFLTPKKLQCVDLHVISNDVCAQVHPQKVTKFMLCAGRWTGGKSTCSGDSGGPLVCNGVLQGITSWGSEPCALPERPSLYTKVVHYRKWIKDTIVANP
Procedure: Despite exquisite selectivity, maximal KLK3 labeling was achieved only after treatment with 20 μM 3 for 1 h. We therefore optimized probe potency by systematically modifying each amino acid side chain in the P1–P4 positions of a morpholine-capped peptidyl-DPP inhibitor scaffold and determined the potency of each analogue using competitive-ABPP against 3.[25],[26] LNCaP CM was first incubated with a peptidyl-DPP analogue for 1 h, followed by 1 h treatment with 20 μM 3 to assess the degree of KLK3 inhibition by densitometry (Figures S4 and S5 for fluorescent gels and Figure S6 for structures of each morpholine-capped peptidyl-DPP analogue). […] Second generation biotinylated 20 and fluorescent 21 ABPs (Figures 2G and S7) based on this scaffold retained exquisite selectivity for KLK3 in LNCaP CM, but in contrast to first-generation ABP 3 achieved maximum labeling at only 1 μM and readily detectable labeling down to 130 nM (Figures 2H and S7).
Figure S4: Typical gel obtained from assessment of the potency of P1 (top) and P2 (bottom) morpholine-DPP analogues against KLK3 using competitive ABPP. […] Residual KLK3 activity was calculated using densitometry (ImageQuant) by comparing to a DMSO treated sample. […]

[3] = KLK2 probe optimization series, mean ± SEM (N = 3)
[4] = KLK14 probe optimization series, mean ± SEM (N = 3)
[5] = KLK14 probe optimization series

Molecule	Kinact/KI KLK2 (KLK2; [3]) [M^–1 s^–1]	Kinact/KI KLK14 (KLK14; KLK2 probe optimization series) [M^–1 s^–1]	selectivity (fold-change) (KLK2; KLK2 probe optimization series) [fold]	Kinact/KI KLK14 (KLK14; [5]) [M^–1 s^–1]	other results
[Dap][Dab]YR [compound 30]	1849 ± 53	134 ± 6	–	–	–
[Abu][Dab][Phe(4-NH2)]R [compound 23]	1659 ± 35	432 ± 15	4	–	–
Abu-Lys(TFA)-Tyr-Arg [compound 29]	128 ± 19	–	–	–	–
C[C@]12CCC(=O)C[C@@H]1CC[C@@H]1[C@@H]2CC[C@]2(C)[C@@H](O)CC[C@@H]12 [DHT, dihydrotestosterone]	–	–	–	–	KLK14 expression and activity (LNCaP cells): decreased; expression and activity of KLK2 and KLK3 (LNCaP cells): upregulated
[Abu][Dab]WR [compound 27]	2374 ± 37	270 ± 5	9	–	–
[Phe(4-Br)][Dab][Abu]R [compound 40]	–	–	–	20215 ± 570	Kinact/KI KLK2 (KLK2; [4]): 350 ± 9 M^–1 s^–1; selectivity (fold-change) (KLK14; [5]): 57 fold
Tyr(Bz)-Dab-Abu-Arg [compound 41]	–	–	–	8894 ± 132	Kinact/KI KLK2 (KLK2; [4]): 98 ± 4 M^–1 s^–1; selectivity (fold-change) (KLK14; [5]): 91 fold
Thr(Bz)-Lys-Phe(3,4-F2)-Arg [compound 34]	–	–	–	602 ± 33	–
Abu-Dab-Phe(3-CI)-Arg [compound 25]	3615 ± 107	443 ± 16	8	–	–
Abu-Dab-4 Pal-Arg [compound 24]	2586 ± 54	390 ± 15	7	–	–
O=C(NC(c1ccc(O)cc1)P(=O)(Oc1ccccc1)Oc1ccccc1)OCc1ccccc1 (stereo not shown) [compound 1]	–	–	–	–	KLK3 inhibition (in words) (KLK3 [1]): modestly potent inhibitor of KLK3
Thr(Bz)-Dab-Abu-Arg [compound 36]	–	–	–	18274 ± 680	Kinact/KI KLK2 (KLK2; [4]): 1668 ± 60 M^–1 s^–1; selectivity (fold-change) (KLK14; [5]): 11 fold
CCC[C@H](NC(=O)[C@H](CCC(N)=O)NC(=O)[C@H](CC(N)=O)NC(=O)CN1CCOCC1)C(=O)NC(c1ccc(C(N)=O)cc1)P(=O)(Oc1ccccc1)Oc1ccccc1 (stereo partly shown) [compound 15]	–	–	–	–	KLK3 inhibition by competitive ABPP (KLK3 [2]): potent KLK3 inhibitor
CCC(NC(=O)CCCCCNC(=O)CCCCC1SCC2NC(=O)NC21)C(=O)NC(CCN)C(=O)NC(CC1CCCCC1)C(=O)NC(c1ccc(NC(=N)N)cc1)P(=O)(Oc1ccccc1)Oc1ccccc1 (stereo not drawn) [compound 22, Abu-Dab-Cha-Arg]	–	–	6	–	kinact/KI (KLK2; [3]): 3270 ± 39 M⁻¹ s⁻¹; kinact/KI (KLK14; KLK2 probe optimization series): 511 ± 18 M⁻¹ s⁻¹
Thr(Bz)-Dap-Abu-Arg [compound 37]	–	–	–	12636 ± 496	Kinact/KI KLK2 (KLK2; [4]): 1162 ± 40 M^–1 s^–1; selectivity (fold-change) (KLK14; [5]): 11 fold
[Abu][Dab]YR [compound 26]	7881 ± 249	552 ± 11	14	–	–
CC(OCc1ccccc1)C(NC(=O)CCCCCNC(=O)CCCCC1SCC2NC(=O)NC21)C(=O)NC(CCCCN)C(=O)NC(Cc1cn(Cc2ccccc2)cn1)C(=O)NC(c1ccc(NC(=N)N)cc1)P(=O)(Oc1ccccc1)Oc1ccccc1 (stereo not shown) [compound 32, Thr(Bz)-Lys-His(Bz)-Arg]	–	–	–	–	kinact/KI (KLK14; [5]): 523 ± 46 M⁻¹ s⁻¹
Thr(Bz)-Lys-Hse(Bz)Arg [compound 33]	–	–	–	1121 ± 54	–
[Abu][Dab][Phe(3,4-F2)]R [compound 28]	5653 ± 265	2526 ± 173	2	–	–
CCCCC(NC(=O)C(CCC(N)=O)NC(=O)C(CO)NC(=O)C(Cc1ccccc1)NC(=O)CCCCCN)C(=O)NC(CCCBr)B(O)O (stereo not shown) [compound 2] (H-[Ahx]FSQ[Nle]-X1; configuration not given here)	–	–	–	–	KLK3 inhibition (in words) (KLK3 [1]): potent and selective KLK3 inhibitor
CNC(=O)c1ccc(N2C(=S)N(c3ccc(C#N)c(C(F)(F)F)c3)C(=O)C2(C)C)cc1F [enzalutamide]	–	–	–	–	KLK14 expression and activity (LNCaP cells): restored; expression and activity of KLK2 and KLK3 (LNCaP cells): nullified
Thr(Bz)-Lys-Abu-Arg [compound 35]	–	–	–	5903 ± 254	Kinact/KI KLK2 (KLK2; [4]): 231 ± 9 M^–1 s^–1; selectivity (fold-change) (KLK14; [5]): 25 fold
